Laboratory results: US7622275B2, “Aequorin as a growth marker in yeast” (Sanofi-Aventis Deutschland GmbH, priority 2001, dated 2009)
Like-named read-outs stand apart in the source and are kept apart here.

How the values were obtained:
S. cerevisiae [1] = test: Aequorin growth marker signal upon toxic treatment (pYX132TPI-AEQ strain); format: cell-based, Saccharomyces cerevisiae; conditions: for Aequorin signal: 100 μM in SC Glucose-Trp; for Aequorin difference between toxic treatment and normal growth: 100 μM
Procedure: As a yeast strain W303 MAT a, far::hisG, sst2::URA3^FOA, fus1::HIS3 was used.
The cells are distributed and/or grown in a white 96-well plate, in a volume of 100 μl.
30 minutes before the measurement time point, 10 μl of a 5 μM coelenterazine (Molecular Probes) solution is distributed in each well (to obtain a 0.5 μM final concentration) to load the cells.
The plate is then incubated at 30° C. for the last 30 minutes.
Aequorin detection is made in a luminometer with injecting system (Luminoskan, Labsystems). For each well, immediately after injection of a 10 mM CaCl2 solution (1 M CaCl2 diluted in lysis buffer Y-PER from Pierce), the luminescent signal is integrated for 15 seconds.
To avoid the intermediate step of loading, it is possible to introduce coelenterazine in the medium at the beginning of the assay: coelenterazine is added at a concentration of 0.5 μM.
(i.e. only half of the normal signal), and the starving cells give a signal of 64 r.l.u.

S. cerevisiae [2] = test system: S. cerevisiae
S. cerevisiae [3] = conditions: 100 μM in SC Glucose-Trp

## O=C1Cc2cc(CCN3CCN(c4nsc5ccccc45)CC3)c(Cl)cc2N1 [Ziprasidone]
S. cerevisiae [1]; after 5 hours of treatment, normal growth 138, starving cells 16
  Aequorin signal: 10 r.l.u.
S. cerevisiae [1]; after 24 hours treatment, normal growth 175
  Aequorin signal: 50 r.l.u.
S. cerevisiae [1]; after 5 hours of treatment
  Aequorin difference between toxic treatment and normal growth: 10 fold
S. cerevisiae [1]; after 24 hours treatment
  Aequorin difference between toxic treatment and normal growth: 3.5 fold
S. cerevisiae [2]
  toxic effects on S. cerevisiae: high toxic effects
S. cerevisiae [2]; 100 μM in SC Glucose-Trp, after 24 hours treatment, normal growth over 1
  OD630: 0.5-0.7
S. cerevisiae [3]; after 5 hours of treatment, normal growth 276, starving cells 64
  β-Galactosidase signal: 116 r.l.u.
S. cerevisiae [3]; after 24 hours treatment, non treated cells 2275
  β-Galactosidase signal: 1923 r.l.u.
